Measured values taken from patent US20230183245A1, “IMIDAZO-PYRIMIDONE COMPOUNDS AS PESTICIDES” (BASF SE, priority 2020, published 2023).
Like-named read-outs stand apart in the source and are kept apart here.

Legend:
Assay type in all cases: in vivo
Heliothis virescens = test: Tobacco budworm (Heliothis virescens) microtiter diet test; details: 120 h, read-out: Egg and larval mortality in comparison with untreated controls
Experimental: (§1) If not otherwise specified, the test solutions are prepared as follows: The active compound is dissolved at the desired concentration in a mixture of 1:1 (vol:vol) distilled water: acteone. The test solution is prepared at the day of use. Test solutions are prepared in general at concentrations of 2500 ppm, 1415 ppm and 800 ppm (wt/vol).
For evaluating control of tobacco budworm (Heliothis virescens) the test unit consisted of 96-well-microtiter plates containing an insect diet and 15-25 H. virescens eggs. The compounds were formulated using a solution containing 75% v/v water and 25% v/v DMSO. Different concentrations of formulated compounds were sprayed onto the insect diet at 10 µl, using a custom built micro atomizer, at two replications. After application, microtiter plates were incubated at about 28 ± 1° C. and about 80 ± 5% relative humidity for 5 days. Egg and larval mortality was then visually assessed.

Myzus persicae = test: Green peach aphid (Myzus persicae) systemic artificial diet test; details: 72 h, read-out: Aphid mortality in comparison with untreated controls
Experimental: as §1
For evaluating control of green peach aphid (Myzus persicae) through systemic means the test unit consisted of 96-well-microtiter plates containing liquid artificial diet under an artificial membrane. The compounds were formulated using a solution containing 75% v/v water and 25% v/v DMSO. Different concentrations of formulated compounds were pipetted into the aphid diet, using a custom built pipetter, at two replications. After application, 5 - 8 adult aphids were placed on the artificial membrane inside the microtiter plate wells. The aphids were then allowed to suck on the treated aphid diet and incubated at about 23 ± 1° C. and about 50 ± 5 % relative humidity for 3 days. Aphid mortality and fecundity was then visually assessed.

Aedes aegypti = test: whole plant or invertebrate; details: 48 h, 2 days, freshly hatched larvae, read-out: Larval mortality in comparison with untreated controls
Experimental: as §1
For evaluating control of yellow fever mosquito (Aedes aegypti) the test unit consisted of 96-well-microtiter plates containing 200 µl of tap water per well and 5-15 freshly hatched A. aegypti larvae. The active compounds were formulated using a solution containing 75% (v/v) water and 25% (v/v) DMSO. Different concentrations of formulated compounds or mixtures were sprayed onto the […] at 2.5 µl, using a custom built micro atomizer, at two replications. After application, microtiter plates were incubated at 28 + 1° C., 80 + 5% RH for 2 days. Larval mortality was then visually assessed.

Nezara viridula = test: Green soldier stink bug (Nezara viridula) soybean pod spray test; details: 120 h, 5 days, late 3rd instar, read-out: Percent mortality in comparison with untreated controls
Experimental: as §1
The active compound is dissolved at the desired concentration in a mixture of 1:1 (vol:vol) distilled water: aceteone. Surfactant (Kinetic) is added at a rate of 0.01% (vol/vol).The test solution is prepared at the day of use. Soybean pods are placed in 90 × 50 mm glass Petri dishes lined with moistened filter paper and inoculated with ten late 3rd instar N. viridula. Using a hand atomizer, an approximately 2 ml solution is sprayed into each Petri dish. Treated set-up is kept at about 25-26° C. and relative humidity of about 65-70%. Percent mortality is recorded after 5 days.

Anthonomus grandis = test: Boll weevil (Anthonomus grandis) microtiter diet test; details: 120 h, read-out: Egg and larval mortality in comparison with untreated controls
Experimental: as §1
For evaluating control of boll weevil (Anthonomus grandis) the test unit consisted of 96-well-microtiter plates containing an insect diet and 5-10 A. grandis eggs. The compounds were formulated using a solution containing 75% v/v water and 25% v/v DMSO. Different concentrations of formulated compounds were sprayed onto the insect diet at 5 µl, using a custom built micro atomizer, at two replications. After application, microtiter plates were incubated at about 25 ± 1° C. and about 75 ± 5% relative humidity for 5 days. Egg and larval mortality was then visually assessed.

[1] = test system: Trialeurodes vaporariorum; test: Greenhouse whitefly (Trialeurodes vaporariorum) egg plant leaf disk test; details: foliar, 144 h, 6 days, read-out: Mortality of hatched crawlers in comparison with untreated controls
Experimental: as §1
For evaluating control of Greenhouse Whitefly (Trialeurodes vaporariorum) the test unit consisted of 96-well-microtiter plates containing a leaf disk of egg plant leaf disk with white fly eggs. The compounds or mixtures were formulated using a solution containing 75% water and 25% DMSO. Different concentrations of formulated were sprayed onto the insect diet at 2.5 µl, using a custom built micro atomizer, at two replications. After application, microtiter plates were incubated at 23 ± 1° C., 65 ± 5% RH for 6 days. Mortality of hatched crawlers was then visually assessed.

Megoura viciae = test: Vetch aphid (Megoura viciae) broad bean leaf disk test; details: foliar, 120 h, 5 days, adult aphids on treated leaf disks, read-out: Aphid mortality in comparison with untreated controls
Experimental: as §1
For evaluating control of vetch aphid (Megoura viciae) through contact or systemic means the test unit consisted of 24-well-microtiter plates containing broad bean leaf disks.
The compounds were formulated using a solution containing 75% v/v water and 25% v/v DMSO. Different concentrations of formulated compounds were sprayed onto the leaf disks at 2.5 µl, using a custom built micro atomizer, at two replications. After application, the leaf disks were air-dried and 5 - 8 adult aphids placed on the leaf disks inside the microtiter plate wells. The aphids were then allowed to suck on the treated leaf disks and incubated at about 23 ± 1° C. and about 50 ± 5% relative humidity for 5 days. Aphid mortality and fecundity was then visually assessed.

[2] = 800 ppm, 3 days, adult aphids on treated diet
[3] = 3 days, adult aphids on treated diet

CCS(=O)(=O)c1cc(/C(C#N)=N/OCC(F)(F)F)cnc1-c1cn2c(=O)n(C3CC3)c(C(F)(F)F)cc2n1 [Compound C-10]
> 75%: mortality at 800 ppm (Heliothis virescens; 800 ppm, 5 days) | mortality at 800 ppm (Myzus persicae; [2]) | mortality at 800 ppm (Aedes aegypti) | mortality at 800 ppm (Nezara viridula) | mortality at 800 ppm (Anthonomus grandis; 800 ppm, 5 days)

CCS(=O)(=O)c1cc(C2(C#N)CC2)cnc1-c1cn2c(=O)n(C3CC3)c(C(F)(F)F)cc2n1 [Compound C-6, 1-[6-[6-cyclopropyl-5-oxo-7-(trifluoromethyl)imidazo[1,2-c]pyrimidin-2-yl]-5-ethylsulfonyl-3-pyridyl]cyclopropanecarbonitrile]
> 75%: mortality at 800 ppm (Heliothis virescens; 800 ppm, 5 days) | mortality at 800 ppm (Aedes aegypti) | mortality at 800 ppm (Nezara viridula) | mortality at 800 ppm [1] | mortality at 800 ppm (Anthonomus grandis; 800 ppm, 5 days)

CCS(=O)(=O)c1cc(/C=N/OCC(F)(F)F)cnc1-c1cn2c(=O)n(C)c(C(F)(F)F)cc2n1 [Compound C-3, 2-[3-ethylsulfonyl-5-[(E)-2,2,2-trifluoroethoxyiminomethyl]-2-pyridyl]-6-methyl-7-(trifluoromethyl)imidazo[1,2-c]pyrimidin-5-one]
> 75%: mortality at 2500 ppm (Heliothis virescens; 5 days) | mortality at 2500 ppm (Megoura viciae) | mortality at 2500 ppm (Myzus persicae; [3]) | mortality at 800 ppm (Aedes aegypti) | mortality at 800 ppm (Nezara viridula) | mortality at 2500 ppm (Anthonomus grandis; 5 days)

CCS(=O)(=O)c1cc(/C=N/O)cnc1-c1cn2c(=O)n(C3CC3)c(C(F)(F)F)cc2n1 [Compound C-23, (3E)-6-[6-cyclopropyl-5-oxo-7-(trifluoromethyl)imidazo[1,2-c]pyrimidin-2-yl]-5-ethylsulfonyl-pyridine-3-carbaldehyde oxime]
> 75%: mortality at 800 ppm (Myzus persicae; [2]) | mortality at 800 ppm (Nezara viridula)

CCS(=O)(=O)c1cc(/C(C#N)=N/O)cnc1-c1cn2c(=O)n(C3CC3)c(C(F)(F)F)cc2n1 [Compound C-8, (2Z)-2-[6-[6-cyclopropyl-5-oxo-7-(trifluoromethyl)imidazo[1,2-c]pyrimidin-2-yl]-5-ethylsulfonyl-3-pyridyl]-2-hydroxyimino-acetonitrile]
> 75%: mortality at 800 ppm (Myzus persicae; [2])

CCS(=O)(=O)c1cc(C(C)(C)C#N)cnc1-c1cn2c(=O)n(C)c(C(F)(F)F)cc2n1 [Compound C-5, 2-[5-ethylsulfonyl-6-[6-methyl-5-oxo-7-(trifluoromethyl)imidazo[1,2-c]pyrimidin-2-yl]-3-pyridyl]-2-methyl-propanenitrile]
> 75%: mortality at 2500 ppm (Heliothis virescens; 5 days) | mortality at 2500 ppm (Myzus persicae; [3]) | mortality at 800 ppm (Nezara viridula) | mortality at 2500 ppm ([1]; 2500 ppm) | mortality at 2500 ppm (Anthonomus grandis; 5 days)

CCS(=O)(=O)c1cc(/C=N/O)cnc1-c1cn2c(=O)n(C)c(C(F)(F)F)cc2n1 [Compound C-2]
> 75%: mortality at 2500 ppm (Heliothis virescens; 5 days) | mortality at 2500 ppm (Myzus persicae; [3]) | mortality at 2500 ppm (Anthonomus grandis; 5 days)

CCO/N=C/c1cnc(-c2cn3c(=O)n(C4CC4)c(C(F)(F)F)cc3n2)c(S(=O)(=O)CC)c1 [Compound C-14]
> 75%: mortality at 800 ppm (Heliothis virescens; 800 ppm, 5 days) | mortality at 800 ppm (Myzus persicae; [2]) | mortality at 800 ppm (Aedes aegypti) | mortality at 800 ppm (Nezara viridula) | mortality at 800 ppm (Anthonomus grandis; 800 ppm, 5 days)

CCS(=O)(=O)c1cc(/C(C#N)=N/OC)cnc1-c1cn2c(=O)n(C3CC3)c(C(F)(F)F)cc2n1 [Compound C-9]
> 75%: mortality at 800 ppm (Heliothis virescens; 800 ppm, 5 days) | mortality at 800 ppm (Myzus persicae; [2]) | mortality at 800 ppm (Aedes aegypti) | mortality at 800 ppm (Nezara viridula) | mortality at 800 ppm (Anthonomus grandis; 800 ppm, 5 days)

CCS(=O)(=O)c1cc(/C=N/OC(C)C)cnc1-c1cn2c(=O)n(C3CC3)c(C(F)(F)F)cc2n1 [Compound C-15]
> 75%: mortality at 800 ppm (Heliothis virescens; 800 ppm, 5 days) | mortality at 800 ppm (Myzus persicae; [2]) | mortality at 800 ppm (Nezara viridula) | mortality at 800 ppm [1] | mortality at 800 ppm (Anthonomus grandis; 800 ppm, 5 days)

CCS(=O)(=O)c1cc(/C=N/OC)cnc1-c1cn2c(=O)n(C)c(C(F)(F)F)cc2n1 [Compound C-1]
> 75%: mortality at 2500 ppm (Heliothis virescens; 5 days) | mortality at 2500 ppm (Megoura viciae) | mortality at 2500 ppm (Myzus persicae; [3]) | mortality at 800 ppm (Aedes aegypti) | mortality at 800 ppm (Nezara viridula) | mortality at 2500 ppm (Anthonomus grandis; 5 days)

CCS(=O)(=O)c1cc(/C=N/OCC(F)(F)F)cnc1-c1cn2c(=O)n(C3CC3)c(C(F)(F)F)cc2n1 [Compound C-16]
> 75%: mortality at 800 ppm (Heliothis virescens; 800 ppm, 5 days) | mortality at 800 ppm (Myzus persicae; [2]) | mortality at 800 ppm [1] | mortality at 800 ppm (Anthonomus grandis; 800 ppm, 5 days)

CCS(=O)(=O)c1cc(C2=NOC3(CCCC3)C2)cnc1-c1cn2c(=O)n(C3CC3)c(C(F)(F)F)cc2n1 [Compound C-13, 6-cyclopropyl-2-[3-ethylsulfonyl-5-(1-oxa-2-azaspiro[4.4]non-2-en-3-yl)-2-pyridyl]-7-(trifluoromethyl)imidazo[1,2-c]pyrimidin-5-one]
> 75%: mortality at 800 ppm (Heliothis virescens) | mortality at 800 ppm (Myzus persicae) | mortality at 800 ppm (Aedes aegypti) | mortality at 800 ppm [1] | mortality at 800 ppm (Anthonomus grandis)

CCS(=O)(=O)c1cc(/C(C#N)=N/OCC2CC2)cnc1-c1cn2c(=O)n(C3CC3)c(C(F)(F)F)cc2n1 [Compound C-11]
> 75%: mortality at 800 ppm (Heliothis virescens; 800 ppm, 5 days) | mortality at 800 ppm (Myzus persicae; [2]) | mortality at 800 ppm (Aedes aegypti) | mortality at 800 ppm (Nezara viridula) | mortality at 800 ppm [1] | mortality at 800 ppm (Anthonomus grandis; 800 ppm, 5 days)

CCS(=O)(=O)c1cc(/C(C#N)=N/OCC#N)cnc1-c1cn2c(=O)n(C3CC3)c(C(F)(F)F)cc2n1 [Compound C-12]
> 75%: mortality at 800 ppm (Myzus persicae; [2]) | mortality at 800 ppm (Aedes aegypti) | mortality at 800 ppm (Anthonomus grandis; 800 ppm, 5 days)

CCS(=O)(=O)c1cc(C(C)(C)C#N)cnc1-c1cn2c(=O)n(CC3CC3)c(C(F)(F)F)cc2n1 [Compound C-7]
> 75%: mortality at 800 ppm (Heliothis virescens; 800 ppm, 5 days) | mortality at 800 ppm (Myzus persicae; [2]) | mortality at 800 ppm (Aedes aegypti) | mortality at 800 ppm (Nezara viridula) | mortality at 800 ppm (Anthonomus grandis; 800 ppm, 5 days)
